Biological target: T1, C5aR (Homo sapiens, UniProt P21730)
T1 construct: U937 cells are a monocytic cell line which express C5aR; host or cells: U937 cells (cAMP treated) or isolated neutrophils
T1 sequence (P21730 1-350): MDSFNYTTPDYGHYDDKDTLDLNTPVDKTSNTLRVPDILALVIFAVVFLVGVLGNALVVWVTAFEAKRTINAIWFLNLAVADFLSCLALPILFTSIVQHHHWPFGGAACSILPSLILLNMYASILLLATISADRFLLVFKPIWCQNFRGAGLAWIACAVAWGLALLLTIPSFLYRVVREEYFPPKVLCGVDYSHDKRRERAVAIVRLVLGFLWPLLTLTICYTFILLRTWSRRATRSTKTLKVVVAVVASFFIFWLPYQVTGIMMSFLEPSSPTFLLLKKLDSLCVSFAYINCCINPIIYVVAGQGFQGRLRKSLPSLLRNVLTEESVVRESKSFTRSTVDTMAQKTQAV
Assay: chemotaxis assay (C5aR mediated migration)
Format: cell-based
Conditions: migration of U937 or neutrophil cells toward C5a (0.03 nM), 1.5 hours at 37° C., read-out: Mig IC50
Procedure: U937 cells are a monocytic cell line which express C5aR, and are available from ATCC (VA). […] Cells were grown under 5% CO2/95% air, 100% humidity at 37° C. and subcultured twice weekly at 1:6 (cells were cultured at a density range of 1×10^5 to 2×10^6 cells/mL) and harvested at 1×10^6 cells/mL. Prior to assay, cells are treated overnight with 0.5 mM of cyclic AMP (Sigma, Ohio) and washed once prior to use. cAMP treated U937 cells can be used in C5aR ligand binding and functional assays.
Optionally, human or murine neutrophils can be used to assay for compound activity. Neutrophils may be isolated from fresh human blood using density separation and centrifugation. Briefly, whole blood is incubated with equal parts 3% dextran and allowed to separate for 45 minutes. After separation, the top layer is layered on top of 15 mls of Ficoll (15 mls of Ficoll for every 30 mls of blood suspension) and centrifuged for 30 minutes at 400×g with no brake. The pellet at the bottom of the tube is then isolated and resuspended into PharmLyse RBC Lysis Buffer (BD Biosciences, San Jose, Calif.) after which the sample is again centrifuged for 10 minutes at 400×g with brake. The remaining cell pellet is resuspended as appropriate and consists of isolated neutrophils.
Optionally, compounds may be further assayed for their ability to inhibit chemotaxis in cells. Chemotaxis assays are performed using 5 μm pore polycarbonate, polyvinylpyrrolidone-coated filters in 96-well chemotaxis chambers (Neuroprobe; Gaithersburg, Md.) using chemotaxis buffer (Hank's balanced salt solution (HBSS) and 1% FBS). C5aR ligands (i.e., C5a, R&D Systems; Minneapolis, Minn.) are use to evaluate compound mediated inhibition of C5aR mediated migration. Other chemokines (i.e., SDF-1α; R&D Systems; Minneapolis, Minn.) are used as specificity controls. […] The chambers are incubated 1.5 hours at 37° C., and the number of cells in the lower chamber quantified either by direct cell counts in five high powered fields per well or by the CyQuant assay (Molecular Probes), a fluorescent dye method that measures nucleic acid content and microscopic observation.

`Cc1cccc(C)c1-n1nc2c(c1-c1c(F)cc(C)c3[nH]ccc13)CN(c1ncc(Cl)cc1F)CC2` [Example 1.091] and `Cc1cccc(C)c1-n1nc2c(c1-c1c(F)cc(Cl)c3[nH]ccc13)CN(c1ncc(C(F)(F)F)cc1F)CC2` [Example 1.124] fall in the same range of IC50: 5 to 50 nM for the first, 5 to 50 nM for the second.

Going from `CCc1cccc(CC)c1-n1nc2c(c1-c1ccc(Cl)c3[nH]ccc13)C(=O)N(c1ncc(C(F)(F)F)cn1)CC2` [Example 1.034] to `CCc1cccc(CC)c1-n1nc2c(c1-c1ccc(Cl)c3[nH]ccc13)CN(c1ncc(C(F)(F)F)cn1)CC2` [Example 1.161], the IC50 falls from > 500 nM to < 5 nM.

`CCc1cccc(CC)c1-n1nc2c(c1-c1c(F)cc(CO)c3[nH]ccc13)CN(c1ncc(C3CC3)cn1)CC2` [Example 1.066] and `CCc1cccc(CC)c1-n1nc2c(c1-c1c(F)cc(Cl)c3[nH]ccc13)CN(c1ncc(C(C)C)cn1)CC2` [Example 1.132] cannot be ordered by IC50: < 5 nM for the first, < 5 nM for the second.

`CCc1cccc(CC)c1-n1nc2c(c1-c1ccc(F)c3[nH]ccc13)CN(c1ncc(C3CC3)cc1Cl)CC2` [Example 1.176] and `CCc1cccc(CC)c1-n1nc2c(c1-c1ccc(Cl)c3[nH]ccc13)CN(c1ncc(C(C)C)cc1F)CC2` [Example 1.152] cannot be ordered by IC50: < 5 nM for the first, < 5 nM for the second.

Compared with `CCc1cccc(CC)c1-n1nc2c(c1-c1ccc(Cl)c3[nH]ccc13)CN(c1nccc(C)n1)CC2` [Example 1.110], `CCc1cccc(CC)c1-n1nc2c(c1-c1ccc(Cl)c3[nH]ccc13)CN(c1nccc(N)n1)CC2` [Example 1.129] is higher in IC50: 5 to 50 nM for the first, 50 to 500 nM for the second. The first is the more potent here.

Compared with `CCc1cccc(CC)c1-n1nc2c(c1-c1ccc3[nH]ccc3c1)CN(C(C)c1ccccc1C(F)(F)F)CC2` (stereo not drawn) [Example 1.202], `Cc1cccc(OCC(C)C)c1-n1nc2c(c1-c1ccc3[nH]ccc3c1)CN(C(C)c1ccccc1C(F)(F)F)CC2` (stereo not drawn) [Example 1.233] is lower in IC50: 5 to 50 nM for the first, < 5 nM for the second. The second is the more potent here.

Compared with `Cc1cccc(OCC(C)C)c1-n1nc2c(c1-c1ccc3[nH]cc(C)c3c1)CN(c1ncc(C(F)(F)F)cc1F)CC2` [Example 1.204], `Cc1cccc(OCC(C)C)c1-n1nc2c(c1-c1ccc3[nH]ccc3c1)CN(c1ncc(C(F)(F)F)cc1F)CC2` [Example 1.232] is lower in IC50: 50 to 500 nM for the first, < 5 nM for the second. The second is the more potent here.

`CCc1cccc(CC)c1-n1nc2c(c1-c1ccc(Cl)c3[nH]ccc13)CN(c1nccc(OC)n1)CC2` [Example 1.113] and `CCc1cccc(CC)c1-n1nc2c(c1-c1ccc(Cl)c3[nH]ccc13)CN(c1ncc(OC)cn1)CC2` [Example 1.126] cannot be ordered by IC50: < 5 nM for the first, < 5 nM for the second.

`Cc1cccc(OCC(C)C)c1-n1nc2c(c1-c1cccc3[nH]ccc13)CN(c1ncc(Cl)cc1Cl)CC2` [Example 1.201] and `Cc1cccc(C)c1-n1nc2c(c1-c1ccc3[nH]ccc3c1F)CN(c1ncc(Cl)cc1Cl)CC2` [Example 1.195] fall in the same range of IC50: 5 to 50 nM for the first, 5 to 50 nM for the second.

`CCc1cccc(CC)c1-n1nc2c(c1-c1ccc(OC)c3[nH]ncc13)CN(c1ncc(C(F)(F)F)cc1F)CC2` [Example 1.052] and `CCc1cccc(CC)c1-n1nc2c(c1-c1ccc(F)c3[nH]cc(Cl)c13)CN(c1ncc(C(F)(F)F)cc1F)CC2` [Example 1.162] fall in the same range of IC50: 5 to 50 nM for the first, 5 to 50 nM for the second.

`CCc1cccc(CC)c1-n1nc2c(c1-c1c(F)cc(Cl)c3[nH]ccc13)CN(c1ccc(C(F)(F)F)cn1)CC2` [Example 1.133] and `CCc1cccc(CC)c1-n1nc2c(c1-c1c(F)cc(C)c3[nH]ccc13)CN(c1ncc(C(F)(F)F)cn1)CC2` [Example 1.141] cannot be ordered by IC50: < 5 nM for the first, < 5 nM for the second.

First: CCc1cccc(CC)c1-n1nc2c(c1-c1ccc3[nH]ccc3c1)CN(Cc1cc(Cl)ccc1C(F)(F)F)CC2 [Example 1.226]
Second: CCc1cccc(CC)c1-n1nc2c(c1-c1ccc3[nH]ccc3c1)CN(c1ncc(C(F)(F)F)cc1F)CC2 [Example 1.082]
The IC50 of the first is lower: < 5 nM for the first, 5 to 50 nM for the second.

`CCc1cccc(CC)c1-n1nc2c(c1-c1c(F)cc(OC)c3[nH]ccc13)CN(c1ncc(C(F)(F)F)cn1)CC2` [Example 1.046] and `CCc1cccc(CC)c1-n1nc2c(c1-c1cc(F)c(CO)c3[nH]ccc13)CN(c1ncc(C(F)(F)F)cn1)CC2` [Example 1.077] cannot be ordered by IC50: < 5 nM for the first, < 5 nM for the second.

`Cc1cccc(C)c1-n1nc2c(c1-c1ccc3[nH]ccc3c1)CN(Cc1ccccc1C(F)(F)F)CC2` [Example 1.221] and `CCc1cccc(CC)c1-n1nc2c(c1-c1ccc3[nH]ccc3c1)CN(c1ncc(C(F)(F)F)cn1)CC2` [Example 1.039] fall in the same range of IC50: 5 to 50 nM for the first, 5 to 50 nM for the second.

`CCc1cccc(CC)c1-n1nc2c(c1-c1ccc(Cl)c3[nH]ccc13)CN(c1ncc(OC(C)C)cn1)CC2` [Example 1.063] and `CCc1cccc(CC)c1-n1nc2c(c1-c1ccc(Cl)c3[nH]ccc13)CN(c1ncc(C(C)(C)O)cn1)CC2` [Example 1.074] cannot be ordered by IC50: < 5 nM for the first, < 5 nM for the second.

First: Cc1cccc(C)c1-n1nc2c(c1-c1ccc(C)c3[nH]ccc13)CN(c1ncc(C(F)(F)F)cc1F)CC2 [Example 1.108]
Second: Cc1cccc(OCC(C)C)c1-n1nc2c(c1-c1ccc3cc[nH]c3c1)CN(c1ncc(C(F)(F)F)cc1F)CC2 [Example 1.228]
The IC50 of the first is lower: 5 to 50 nM for the first, 50 to 500 nM for the second.

First: CCc1cccc(CC)c1-n1nc2c(c1-c1ccc(C(=O)N(C)C)c3[nH]ccc13)CN(c1ncc(C(F)(F)F)cn1)CC2 [Example 1.047]
Second: CCc1cccc(CC)c1-n1nc2c(c1-c1cc(Cl)c(C)c3[nH]ccc13)CN(c1ncc(C(F)(F)F)cn1)CC2 [Example 1.081]
The IC50 of the first is higher: 50 to 500 nM for the first, < 5 nM for the second. The second is the more potent here.

`CCc1cccc(CC)c1-n1nc2c(c1-c1c(F)cc(CO)c3[nH]ccc13)CN(c1ncc(C(C)C)cc1F)CC2` [Example 1.094] and `CCc1cccc(CC)c1-n1nc2c(c1-c1ccc(C)c3[nH]ccc13)CN(c1ncc(C(C)C)cc1F)CC2` [Example 1.136] cannot be ordered by IC50: < 5 nM for the first, < 5 nM for the second.

`CCc1cccc(CC)c1-n1nc2c(c1-c1ccc3[nH]c(C)nc3c1Cl)CN(c1ncc(C(F)(F)F)cn1)CC2` [Example 1.037] and `CCc1cccc(CC)c1-n1nc2c(c1-c1ccnc3[nH]ccc13)CN(c1ncc(C(F)(F)F)cn1)CC2` [Example 1.029] fall in the same range of IC50: 5 to 50 nM for the first, 5 to 50 nM for the second.

First: Cc1cccc(OCC(C)C)c1-n1nc2c(c1-c1ccc3cc[nH]c3c1)CN(CC(C)(C)C)CC2 [Example 1.236]
Second: C=C(C)c1nsc(N2CCc3nn(-c4c(C)cccc4OCC(C)C)c(-c4ccc5[nH]ccc5c4)c3C2)n1 [Example 1.213]
The IC50 of the first is higher: 50 to 500 nM for the first, 5 to 50 nM for the second.

`COc1cnc(N2CCc3nn(-c4c(C)cccc4C)c(-c4ccc(Cl)c5[nH]ccc45)c3C2)nc1` [Example 1.112] and `Cc1cnc(N2CCc3nn(-c4c(C)cccc4C)c(-c4ccc(Cl)c5[nH]ccc45)c3C2)nc1` [Example 1.154] fall in the same range of IC50: 5 to 50 nM for the first, 5 to 50 nM for the second.

First: Cc1cccc(OCC(C)C)c1-n1nc2c(c1-c1ccc3[nH]ccc3c1)CN(C(=O)OCc1ccccc1)CC2 [Example 1.238]
Second: CCc1cccc(CC)c1-n1nc2c(c1-c1ccc3[nH]ccc3c1)CN(C(CC)CC)CC2 [Example 1.212]
The IC50 of the first is higher: 5 to 50 nM for the first, < 5 nM for the second.

First: CCc1cccc(CC)c1-n1nc2c(c1-c1ccc(Cl)c3[nH]ccc13)CN(C(=O)Nc1ccccc1)CC2 [Example 1.149]
Second: CCc1cccc(CC)c1-n1nc2c(c1-c1cc(F)c(C)c3[nH]ccc13)CN(c1ncc(C(C)C)cn1)CC2 [Example 1.115]
The IC50 of the first is higher: 5 to 50 nM for the first, < 5 nM for the second.

First: CCc1cccc(CC)c1-n1nc2c(c1-c1ccc3[nH]cnc3c1)CN(c1ncc(C(F)(F)F)cn1)CC2 [Example 1.017]
Second: COc1c(F)cc(-c2c3c(nn2-c2c(C)cccc2C)CCN(c2ncc(C4CC4)cn2)C3)c2cc[nH]c12 [Example 1.003]
The IC50 of the first is higher: > 500 nM for the first, < 5 nM for the second.

Reference: patent publication US11384079B2, “6-5 fused rings as C5a inhibitors” (CHEMOCENTRYX, INC., priority 2017, dated 2022)
